For the assay, the target named is T1, human GPR68 (Homo sapiens, UniProt Q15743).
T1 construct: encoding full-length human GPR68 (uniprot ID: Q15743); expressed in transfected cells; host or cells: HEK293T
Kind of assay: GPR68 Biochemical Assay (Promega GloSensor cAMP assay, GPR68 antagonism). It counts as cell-based. The settings on record: HEK293T cells transiently expressing hGPR68, antagonism of pH 5.5 stimulated cAMP, 15 min, read-out: hGPR68 IC50. The gist of the method:
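HEK293T cells transiently co-transfected with full-length human GPR68 and GloSensor plasmids, preloaded 60 min with GloSensor substrate in pH 8.0 buffer. Compounds (9-point half-log series, top 50 μM final, 0.5% DMSO) added with pH 5.5 buffer (~EC80-90 stimulation); luminescence read after 15 min at room temperature. IC50 from sigmoidal fit of % inhibition.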
A general note: cAMP levels reflect the balance of adenylyl cyclase and phosphodiesterase activity.

The structures appear in SMILES notation. A value given as a limit tells only on which side of the number the result lay.

T1 sequence (Q15743 whole entry): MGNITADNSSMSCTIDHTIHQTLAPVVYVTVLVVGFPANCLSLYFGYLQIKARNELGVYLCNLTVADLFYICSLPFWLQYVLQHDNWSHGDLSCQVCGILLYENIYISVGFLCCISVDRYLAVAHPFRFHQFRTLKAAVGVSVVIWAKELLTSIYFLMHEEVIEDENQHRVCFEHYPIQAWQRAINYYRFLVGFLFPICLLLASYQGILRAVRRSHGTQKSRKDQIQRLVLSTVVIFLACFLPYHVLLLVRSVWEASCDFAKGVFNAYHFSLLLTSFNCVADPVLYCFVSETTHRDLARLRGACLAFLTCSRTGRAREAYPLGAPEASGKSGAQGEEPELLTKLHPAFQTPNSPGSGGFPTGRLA

Take `COCc1nc2c(C(=O)NC3Cc4cscc4C3)ccnn2c1C(N)=O` [Compound 105, N8-(5,6-dihydro-4H-cyclopenta[c]thiophen-5-yl)-2-(methoxymethyl)imidazo[1,2-b]pyridazine-3,8-dicarboxamide]: the IC50 was less than 0.05 µM.

On to `COCc1nc2c(C(=O)NC3Cc4ccccc43)ccnn2c1C(N)=O` (centres unmarked) [Compound 106, N8-(7-bicyclo[4.2.0]octa-1,3,5-trienyl)-2-(methoxymethyl)imidazo[1,2-b]pyridazine-3,8-dicarboxamide], for which the IC50 was less than 0.05 µM.

As for `COCc1nc2c(C(=O)NC3CC(F)(F)c4ccccc43)ccnn2c1C(N)=O` (centres unmarked) [Compound 107, N8-(3,3-difluoroindan-1-yl)-2-(methoxymethyl)imidazo[1,2-b]pyridazine-3,8-dicarboxamide], the IC50 is less than 0.05 µM.

Turning to `COCc1nc2c(C(=O)N[C@H]3CCOc4cc(F)ccc43)ccnn2c1C(N)=O` [Compound 108, 2-(methoxymethyl)-N8-[(4S)-7-fluorochroman-4-yl]imidazo[1,2-b]pyridazine-3,8-dicarboxamide], the IC50 is less than 0.05 µM.

For the compound `COCc1nc2c(C(=O)NC3CCC(F)(F)CC3)ccnn2c1C(N)=O` [Compound 109, N8-(4,4-difluorocyclohexyl)-2-(methoxymethyl)imidazo[1,2-b]pyridazine-3,8-dicarboxamide], the IC50 is less than 0.05 µM.

Take `COCc1nc2c(C(=O)NCc3ccc(F)cc3)ccnn2c1C(N)=O` [Compound 110, N8-[(4-fluorophenyl)methyl]-2-(methoxymethyl)imidazo[1,2-b]pyridazine-3,8-dicarboxamide]: the IC50 is less than 0.05 µM.

Regarding `NC(=O)c1c(C2CC2)nn2c(C(=O)N[C@H]3C[C@@H](OC(F)(F)F)C3)ccnc12` [Compound 111, 2-cyclopropyl-N7-[cis-3-(trifluoromethoxy)cyclobutyl]pyrazolo[1,5-a]pyrimidine-3,7-dicarboxamide], the IC50 is less than 0.05 µM.

For the compound `NC(=O)c1c(C2CC2)nn2c(C(=O)NC3CC(F)(F)c4ccccc43)ccnc12` (centres unmarked) [Compound 112, 2-cyclopropyl-N7-(3,3-difluoroindan-1-yl)pyrazolo[1,5-a]pyrimidine-3,7-dicarboxamide], the IC50 is less than 0.05 µM.

Take `NC(=O)c1c(C2CC2)nn2c(C(=O)N[C@H]3CCOc4cc(F)ccc43)ccnc12` [Compound 113, 2-cyclopropyl-N7-[(4S)-7-fluorochroman-4-yl]pyrazolo[1,5-a]pyrimidine-3,7-dicarboxamide]: the IC50 is less than 0.05 µM.

For `COCc1nn2c(C(=O)NC3COc4ccc(Cl)cc4C3)ccnc2c1C(N)=O` (centres unmarked) [Compound 114, N7-(6-chlorochroman-3-yl)-2-(methoxymethyl)pyrazolo[1,5-a]pyrimidine-3,7-dicarboxamide], the IC50 is less than 0.05 µM.

Regarding `NC(=O)c1c(C2CC2)nn2c(C(=O)NC3Cc4cccnc4C3)ccnc12` (centres unmarked) [Compound 115, 2-cyclopropyl-N7-(6,7-dihydro-5H-cyclopenta[b]pyridin-6-yl)pyrazolo[1,5-a]pyrimidine-3,7-dicarboxamide], the IC50 is less than 0.05 µM.

For the compound `COCc1nn2c(C(=O)NC3CCC(F)(F)c4ccccc43)ccnc2c1C(N)=O` (centres unmarked) [Compound 116, N7-(4,4-difluorotetralin-1-yl)-2-(methoxymethyl)pyrazolo[1,5-a]pyrimidine-3,7-dicarboxamide], the IC50 is less than 0.05 µM.

`COCc1nn2c(C(=O)Nc3cnc4c(F)cccc4c3)ccnc2c1C(N)=O` [Compound 117, N7-(8-fluoro-3-quinolyl)-2-(methoxymethyl)pyrazolo[1,5-a]pyrimidine-3,7-dicarboxamide]: the IC50 is less than 0.05 µM.

Consider `COCc1nn2c(C(=O)Nc3cc4ccccc4n3C)ccnc2c1C(N)=O` [Compound 118, 2-(methoxymethyl)-N7-(1-methylindol-2-yl)pyrazolo[1,5-a]pyrimidine-3,7-dicarboxamide], for which the IC50 was less than 0.05 µM.

In the case of `COCc1nn2c(C(=O)N[C@H]3COc4c3ccc(F)c4F)ccnc2c1C(N)=O` [Compound 119, 2-(methoxymethyl)-N7-[(3R)-6,7-difluoro-2,3-dihydrobenzofuran-3-yl]pyrazolo[1,5-a]pyrimidine-3,7-dicarboxamide], the concentration for half-maximal inhibition (IC50) is less than 0.05 µM.

`COCc1nn2c(C(=O)N[C@H]3COc4ccc(F)cc43)ccnc2c1C(N)=O` [Compound 120, N7-[(3R)-5-fluoro-2,3-dihydrobenzofuran-3-yl]-2-(methoxymethyl)pyrazolo[1,5-a]pyrimidine-3,7-dicarboxamide]: the IC50 was less than 0.05 µM.

For the compound `COCc1nn2c(C(=O)NC3(C)Cc4ccccc4C3)ccnc2c1C(N)=O` [Compound 121, 2-(methoxymethyl)-N7-(2-methylindan-2-yl)pyrazolo[1,5-a]pyrimidine-3,7-dicarboxamide], the IC50 is 0.05 to 0.5 µM.

On to `COCc1nn2c(C(=O)NC(C)c3ccc(F)cc3)ccnc2c1C(N)=O` (centres unmarked) [Compound 122, N7-[1-(4-fluorophenyl)ethyl]-2-(methoxymethyl)pyrazolo[1,5-a]pyrimidine-3,7-dicarboxamide], for which the IC50 fell in the range of 0.05 to 0.5 µM.

In the case of `COCc1nn2c(C(=O)N[C@H]3CCOc4cc(F)ccc43)ccnc2c1C(N)=O` [Compound 123, 2-(methoxymethyl)-N7-[(4S)-7-fluorochroman-4-yl]pyrazolo[1,5-a]pyrimidine-3,7-dicarboxamide], the IC50 was less than 0.05 µM.

For `COCc1nn2c(C(=O)NC3(C)CC4(CC(F)(F)C4)C3)ccnc2c1C(N)=O` [Compound 124, N7-(2,2-difluoro-6-methyl-spiro[3.3]heptan-6-yl)-2-(methoxymethyl)pyrazolo[1,5-a]pyrimidine-3,7-dicarboxamide], the IC50 lay within 0.5 to 5 µM.

For `COCc1nn2c(C(=O)NC(c3ccc(F)cc3)C(F)(F)F)ccnc2c1C(N)=O` (centres unmarked) [Compound 125, 2-(methoxymethyl)-N7-[2,2,2-trifluoro-1-(4-fluorophenyl)ethyl]pyrazolo[1,5-a]pyrimidine-3,7-dicarboxamide], the IC50 fell in the range of 0.5 to 5 µM.

Take `COCc1nn2c(C(=O)NC3CC4(C3)CC(F)(F)C4)ccnc2c1C(N)=O` [Compound 126, N7-(2,2-difluorospiro[3.3]heptan-6-yl)-2-(methoxymethyl)pyrazolo[1,5-a]pyrimidine-3,7-dicarboxamide]: the IC50 lay within 0.05 to 0.5 µM.

Take `COCc1nn2c(C(=O)NC3(c4ccc(F)cc4)CC3)ccnc2c1C(N)=O` [Compound 127, N7-[1-(4-fluorophenyl)cyclopropyl]-2-(methoxymethyl)pyrazolo[1,5-a]pyrimidine-3,7-dicarboxamide]: the IC50 was 0.05 to 0.5 µM.

Turning to `COCc1nn2c(C(=O)N[C@H]3COc4cc(F)ccc43)ccnc2c1C(N)=O` [Compound 128, 2-(methoxymethyl)-N7-[(3R)-6-fluoro-2,3-dihydrobenzofuran-3-yl]pyrazolo[1,5-a]pyrimidine-3,7-dicarboxamide], the IC50 was less than 0.05 µM.

As for `COCc1nn2c(C(=O)NC3CC(F)(F)c4ccccc43)ccnc2c1C(N)=O` (centres unmarked) [Compound 129, N7-(3,3-difluoroindan-1-yl)-2-(methoxymethyl)pyrazolo[1,5-a]pyrimidine-3,7-dicarboxamide], the IC50 is less than 0.05 µM.

Regarding `NC(=O)c1c(C2CC2)nn2c(C(=O)NC3Cc4ccccc4C3)ccnc12` [Compound 130, 2-cyclopropyl-N7-indan-2-yl-pyrazolo[1,5-a]pyrimidine-3,7-dicarboxamide], the IC50 was less than 0.05 µM.

As to `COCc1nn2c(C(=O)NC3CCC34CC(F)(F)C4)ccnc2c1C(N)=O` (centres unmarked) [Compound 131, N7-(2,2-difluorospiro[3.3]heptan-7-yl)-2-(methoxymethyl)pyrazolo[1,5-a]pyrimidine-3,7-dicarboxamide], the IC50 was in the range of 0.5 to 5 µM.

Regarding `COCc1nn2c(C(=O)N[C@H]3CC[C@@H](OC(F)(F)F)CC3)ccnc2c1C(N)=O` [Compound 132, 2-(methoxymethyl)-N7-[cis-4-(trifluoromethoxy)cyclohexyl]pyrazolo[1,5-a]pyrimidine-3,7-dicarboxamide], the IC50 lay in the range of 0.05 to 0.5 µM.

Regarding `COCc1nn2c(C(=O)NCC3CCC(F)(F)CC3)ccnc2c1C(N)=O` [Compound 133, N7-[(4,4-difluorocyclohexyl)methyl]-2-(methoxymethyl)pyrazolo[1,5-a]pyrimidine-3,7-dicarboxamide], the IC50 is less than 0.05 µM.

On to `NC(=O)c1c(C2CC2)nn2c(C(=O)NC3Cc4cscc4C3)ccnc12` [Compound 134, 2-cyclopropyl-N7-(5,6-dihydro-4H-cyclopenta[c]thiophen-5-yl)pyrazolo[1,5-a]pyrimidine-3,7-dicarboxamide], for which the IC50 is less than 0.05 µM.

Consider `NC(=O)c1c(C2CC2)nn2c(C(=O)NC3CCC(F)(F)CC3)ccnc12` [Compound 135, 2-cyclopropyl-N7-(4,4-difluorocyclohexyl)pyrazolo[1,5-a]pyrimidine-3,7-dicarboxamide], for which the IC50 was less than 0.05 µM.

As for `NC(=O)c1c(C2CC2)nn2c(C(=O)NC3CC(F)(F)C3)ccnc12` [Compound 136, 2-cyclopropyl-N7-(3,3-difluorocyclobutyl)pyrazolo[1,5-a]pyrimidine-3,7-dicarboxamide], the IC50 is less than 0.05 µM.

`CCCc1nn2c(C(=O)N[C@H]3C[C@@H](OC(F)(F)F)C3)ccnc2c1C(N)=O` [Compound 137, 2-propyl-N7-[cis-3-(trifluoromethoxy)cyclobutyl]pyrazolo[1,5-a]pyrimidine-3,7-dicarboxamide]: the IC50 was less than 0.05 µM.

Take `NC(=O)c1c(C2CC2)nn2c(C(=O)NC3Cc4ccccc43)ccnc12` (centres unmarked) [Compound 138, N7-(7-bicyclo[4.2.0]octa-1,3,5-trienyl)-2-cyclopropyl-pyrazolo[1,5-a]pyrimidine-3,7-dicarboxamide]: the IC50 was less than 0.05 µM.

On to `CCCc1nn2c(C(=O)NC3Cc4ccccc4C3)ccnc2c1C(N)=O` [Compound 139, N7-indan-2-yl-2-propyl-pyrazolo[1,5-a]pyrimidine-3,7-dicarboxamide], for which the IC50 is less than 0.05 µM.

By IC50 is commonly meant the midpoint of a concentration-inhibition curve.

The values are drawn from US20260308159A1, “BICYCLIC HETEROARYLAMIDES HAVING GPR68 MODULATING ACTIVITY” (RECURSION PHARMACEUTICALS, INC., priority 2023, published 2026).
